Assays:
[1] = biological target: T1, GK-GKRP (interaction between glucokinase and glucokinase regulatory protein) (Homo sapiens, UniProt Q14397); assay: GK-GKRP Binding Assay (Binding), AlphaScreen; conditions: avi-tagged GKRP, GK-fluorescein, AlphaScreen beads, 1 μM sorbitol-6-phosphate; read-out: GK-GKRP IC50 (Binding)
T1 construct: made in house; host or cells: GKRP: baculovirus system
T1 sequence (Q14397 1-625): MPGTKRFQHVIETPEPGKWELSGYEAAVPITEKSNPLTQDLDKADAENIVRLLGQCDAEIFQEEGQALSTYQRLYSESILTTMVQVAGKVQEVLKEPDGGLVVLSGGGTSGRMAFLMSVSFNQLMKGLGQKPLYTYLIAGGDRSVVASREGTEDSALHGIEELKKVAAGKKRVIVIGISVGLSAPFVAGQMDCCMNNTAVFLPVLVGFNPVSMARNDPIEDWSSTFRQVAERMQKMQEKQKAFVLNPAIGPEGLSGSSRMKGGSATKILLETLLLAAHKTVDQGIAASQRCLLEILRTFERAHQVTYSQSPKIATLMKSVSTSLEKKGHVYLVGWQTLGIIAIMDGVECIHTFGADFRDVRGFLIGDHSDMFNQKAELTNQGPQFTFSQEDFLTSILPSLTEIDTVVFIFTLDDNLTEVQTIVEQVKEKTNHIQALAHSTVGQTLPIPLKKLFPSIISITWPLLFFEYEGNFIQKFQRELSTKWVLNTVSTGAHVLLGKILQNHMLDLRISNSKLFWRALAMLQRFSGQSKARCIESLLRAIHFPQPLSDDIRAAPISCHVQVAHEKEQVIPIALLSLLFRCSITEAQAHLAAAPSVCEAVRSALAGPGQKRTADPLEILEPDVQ
Procedure: GK-GKRP Binding Assay Protocol (Binding)
This assay is used to directly measure the interaction between glucokinase (GK) and glucokinase regulatory protein (GKRP). Begin by preparing the following solutions. Assay Buffer: 20 mM Tris, pH 7.5/0.05% BSA/1 mM DTT/1 μM sorbitol-6-phosphate. […] Combine the following reagents in a white 96-well half area plate. Pipette 14 μl of the diluted avi-tagged GKRP into each well. Add 1 μl of compound to be tested and incubate at room temperature for 20 minutes. After 20 minutes, add 5 μl of assay buffer containing 6 nM GK-fluorescein. […] Incubate in a dark room for 2 hours at room temperature. After 2 hours read the plate using an Envision plate reader (Perkin Elmer, Waltham Mass.).
Recombinant human glucokinase (hepatic) was purified and formulated in 50 mM Tris (pH 7.5), 150 mM NaCl and 20 mM glucose previous to labeling with fluorescein. […] Unreacted dye was removed by extensive dialysis into the final formulation buffer: 25 mM Tris (pH 7.2), 150 mM NaCl, 10% glycerol and 2 mM DTT. The human glucokinase regulatory protein construct was designed with a C-terminal avitag and was expressed in a baculovirus system. Purified GKRP was incubated overnight with recombinant biotin ligase in the presence of D-biotin, ATP and MgCl2. GKRP was isolated from reaction components by chromatography on a Superdex 200 size exclusion column into: 50 mM HEPES, 150 mM NaCl and 5 mM DTT. […] Proteins were quantitated according to their calculated molar extinction coefficients at A280 and were stored at −80° C.
(§1) In the Examples, the assays are referred to as “LCMS/MS” or “Binding.”

[2] = biological target: T2, GK-GKRP (glucokinase / glucokinase regulatory protein) (Homo sapiens, UniProt Q14397); assay: GKRP LC MS/MS Biochemical Assay (LCMS/MS); conditions: formation of 13C-glucose-6-phosphate from 13C-glucose by LC MS/MS, human His-hepatic GK, fructose-6-phosphate
T2 sequence (Q14397 1-625): T1 sequence (Q14397 1-625)
Procedure: GKRP LC MS/MS Biochemical Assay (LCMS/MS)
This assay is used to directly measure the formation of ^13C-glucose-6-phosphate from ^13C-glucose by LC MS/MS. Begin by preparing the following solutions: Compound Buffer (CB): 50 mM Tris, pH 7.5/4 mM MgCl2/6% DMSO/fresh 10 mM DTT from 1M frozen stock. Enzyme Buffer (EB): 50 mM Tris, pH 7.5/4 mM MgCl2/6% DMSO/fresh 0.1% BSA/fresh 0.01% Brij-35 (10% BSA and 1% Brij-35 stock). GK (Glucokinase) Working Stock (5×): Dilute human His-hepatic GK to 30 nM in EB buffer. […] Seal the plate and incubate for 30 minutes at room temperature while mixing. After 30 minutes add 10 μl of GK Working Stock (5×). Re-seal the plate and incubate for another 30 minutes at room temperature while mixing. After the second 30 minutes, stop the reaction by the addition of 50 μl of 100% acetonitrile, seal, and mix for 5-10 minutes. Run 10 μl of this sample through the LC MS/MS (API 3200, Applied Biosystems, Carlsbad, Calif.). […]
as §1

Structure (SMILES)	IC50 [1]	EC50 [2]
O=S(=O)(NC(c1cc2ccccc2o1)c1ccccc1I)c1ccc2c(c1)OCCCO2 (racemic) [Example 21, N-(1-benzofuran-2-yl(2-iodophenyl)methyl)-3,4-dihydro-2H-1,5-benzodioxepine-7-sulfonamide]	228 nM	76 nM
O=S(=O)(NC(c1ccccc1)c1nc2ccccc2o1)c1ccc2c(c1)OCCCO2 (racemic) [Example 54, N-(1,3-benzoxazol-2-yl(phenyl)methyl)-3,4-dihydro-2H-1,5-benzo dioxepine-7-sulfonamide]	1100 nM	750 nM
O=S(=O)(NC(c1ccccc1)c1cc2cc(O)ccc2s1)c1ccc2c(c1)OCCCO2 (racemic) [Example 63, N-((5-hydroxy-1-benzothiophen-2-yl)(phenyl)methyl)-3,4-dihydro-2H-1,5-benzodioxepine-7-sulfonamide]	4200 nM	3200 nM
O=S(=O)(NC(c1cc2ccccc2o1)c1ccccc1Br)c1ccc2c(c1)OCCCO2 (racemic) [Example 22, N-(1-benzofuran-2-yl(2-bromophenyl)methyl)-3,4-dihydro-2H-1,5-benzodioxepine-7-sulfonamide]	150 nM	58 nM
COc1ccccc1[C@@H](NS(=O)(=O)c1ccc2c(c1)OCCCO2)c1cc2ccccc2o1 (single isomer, unassigned) [Example 17 Peak #2]	52 nM	52 nM
C=Cc1ccccc1C(NS(=O)(=O)c1ccc2c(c1)OCCCO2)c1cc2ccccc2o1 (racemic) [Example 7, N-(1-benzofuran-2-yl(2-ethenylphenyl)methyl)-3,4-dihydro-2H-1,5-benzodioxepine-7-sulfonamide]	98 nM	45 nM
O=S(=O)(NC(c1cc2ccccc2o1)c1ccccc1C(F)(F)F)c1ccc2c(c1)OCCCO2 (racemic) [Example 12, N-(1-benzofuran-2-yl(2-(trifluoromethyl)phenyl)methyl)-3,4-dihydro-2H-1,5-benzodioxepine-7-sulfonamide]	1000 nM	320 nM
CSc1ccccc1[C@@H](NS(=O)(=O)c1ccc2c(c1)OCCCO2)c1cc2ccccc2o1 (single isomer, unassigned) [Example 19 Peak #2]	46 nM	23 nM
O=S(=O)(NC(c1cc2ccccc2o1)c1ccccc1Cl)c1ccc2c(c1)OCCCO2 (racemic) [Example 20, N-(1-benzofuran-2-yl(2-chlorophenyl)methyl)-3,4-dihydro-2H-1,5-benzodioxepine-7-sulfonamide]	220 nM	70 nM
O=S(=O)(NC(c1ccccn1)c1cc2ccccc2o1)c1ccc2c(c1)OCCCO2 (racemic) [Example 25, N-(1-benzofuran-2-yl(2-pyridinyl)methyl)-3,4-dihydro-2H-1,5-benzo dioxepine-7-sulfonamide]	1400 nM	270 nM
Cc1ccccc1C(NS(=O)(=O)c1ccc2c(c1)OCCCO2)c1cc2ccccc2o1 (racemic) [Example 2, N-(1-benzofuran-2-yl(2-methylphenyl)methyl)-3,4-dihydro-2H-1,5-benzodioxepine-7-sulfonamide]	–	110 nM

The next lines start with the values.

IC50 [1]	EC50 [2]	Structure (SMILES)
630 nM	300 nM	O=S(=O)(NC(c1ccccc1)c1nc2ccccc2s1)c1ccc2c(c1)OCCCO2 (racemic) [Example 59, N-(1,3-benzothiazol-2-yl(phenyl)methyl)-3,4-dihydro-2H-1,5-benzodioxepine-7-sulfonamide]
430 nM	180 nM	CSc1ccccc1[C@H](NS(=O)(=O)c1ccc2c(c1)OCCCO2)c1cc2ccncc2s1 (single isomer, unassigned) [Example 64 Peak #1]
> 33000 nM	> 20000 nM	O=S(=O)(N[C@H](c1cc2ccccc2o1)c1ccccc1I)c1ccc2c(c1)OCCCO2 (single isomer, unassigned) [Example 21 Peak #1]
8 nM	13 nM	CSc1ccccc1[C@@H](NS(=O)(=O)c1ccc2c(c1)OCCCO2)c1cc2ccccc2s1 (single isomer, unassigned) [Example 41 Peak #2]
860 nM	240 nM	O=S(=O)(NC(c1ccccc1)c1ccc2ccccc2c1)c1ccc2c(c1)OCCCO2 (racemic) [Example 55, N-(2-naphthalenyl(phenyl)methyl)-3,4-dihydro-2H-1,5-benzo dioxepine-7-sulfonamide]
3200 nM	740 nM	O=S(=O)(NC(c1cc2ccccc2o1)c1cccs1)c1ccc2c(c1)OCCCO2 (racemic) [Example 31, N-(1-benzofuran-2-yl(2-thiophenyl)methyl)-3,4-dihydro-2H-1,5-benzodioxepine-7-sulfonamide]
48 nM	24 nM	COc1ccccc1[C@@H](NS(=O)(=O)c1ccc2c(c1)OCCCO2)c1nc2cccnc2s1 (single isomer, unassigned) [Example 67 Peak #2]
25 nM	31 nM	C=Cc1ccccc1C(NS(=O)(=O)c1ccc2c(c1)OCCCO2)c1cc2ccccc2s1 (racemic) [Example 38, N-(1-benzothiophen-2-yl(2-ethenylphenyl)methyl)-3,4-dihydro-2H-1,5-benzodioxepine-7-sulfonamide]
290 nM	150 nM	Cc1ccccc1C(NS(=O)(=O)c1ccc2c(c1)OCCCO2)c1cc2ccccc2s1 (racemic) [Example 36, N-(1-benzothiophen-2-yl(2-methylphenyl)methyl)-3,4-dihydro-2H-1,5-benzodioxepine-7-sulfonamide]
6 nM	22 nM	C[C@](O)(c1ccnc(-c2cccc3cc([C@H](NS(=O)(=O)c4ccc5c(c4)OCCCO5)c4ccccc4)sc23)c1)C(F)(F)F (single isomer, unassigned) [Example 70 Peak #2]
490 nM	450 nM	O=S(=O)(NC(c1cc2ccccc2o1)c1ccccc1F)c1ccc2c(c1)OCCCO2 (racemic) [Example 23, N-(1-benzofuran-2-yl(2-fluorophenyl)methyl)-3,4-dihydro-2H-1,5-benzodioxepine-7-sulfonamide]
410 nM	480 nM	COc1cnccc1C(NS(=O)(=O)c1ccc2c(c1)OCCCO2)c1cc2cccnc2s1 (racemic) [Example 50, N-((3-methoxy-4-pyridinyl)(thieno[2,3-b]pyridin-2-yl)methyl)-3,4-dihydro-2H-1,5-benzodioxepine-7-sulfonamide]
–	1600 nM	O=S(=O)(NC(c1cc2ccccc2o1)c1ccncc1Cl)c1ccc2c(c1)OCCCO2 (racemic) [Example 28, N-(1-benzofuran-2-yl(3-chloro-4-pyridinyl)methyl)-3,4-dihydro-2H-1,5-benzodioxepine-7-sulfonamide]
–	1200 nM	O=S(=O)(NC(c1cc2ccccc2o1)c1cccnc1Cl)c1ccc2c(c1)OCCCO2 (racemic) [Example 27, N-(1-benzofuran-2-yl(2-chloro-3-pyridinyl)methyl)-3,4-dihydro-2H-1,5-benzodioxepine-7-sulfonamide]
